Source: ChEMBL document CHEMBL1121620, “Glycerides as prodrugs. 2. 1,3-Dialkanoyl-2-(2-methyl-4-oxo-1,3-benzodioxan-2-yl)glycerides (cyclic aspirin triglycerides) as antiinflammatory agents” (1980)

Assays:
Type in all cases: functional
Rattus norvegicus [1] = test: Antiedema efficacy was measured in male Sprague-Dawley rats relative to aspirin; activity expressed as percent of aspirin
Rattus norvegicus [2] = species on record: Rattus norvegicus; test: Effective dose of compound to produce 25% inhibition in rat; Value ranges from 326-499
[3] = Ratio between ulcerogenicity and anti edema activity (UD50/ED25)
Rattus norvegicus [4] = species on record: Rattus norvegicus; test: Compound was tested for 50% inhibition of incidence of lesions (UD50) in rat

Row | SMILES | Activity (Rattus norvegicus [1]) | ED25 (Rattus norvegicus [2]) | Ratio [3] | UD50 (Rattus norvegicus [4])
1 | CC(=O)OCC(COC(C)=O)OC1(C)OC(=O)c2ccccc2O1 (configuration not stated) | 62% | – | – | –
2 | CC(=O)Oc1ccccc1C(=O)O [ASPIRIN] | 100% | 402 µM/kg | – | –
3 | CCCCCCCCCCCCCCCC(=O)OCC(COC(=O)CCCCCCCCCCCCCCC)OC1(C)OC(=O)c2ccccc2O1 (configuration not stated) | 62% | – | – | –
4 | CCCCCCCCCC(=O)OCC(COC(=O)CCCCCCCCC)OC1(C)OC(=O)c2ccccc2O1 (configuration not stated) | 100% | – | 10.6 | 4102 µM/kg
